Test results as given in the METLIN SMRT retention time set (Domingo-Almenara et al. 2019).

Assay: gradient 5% acetonitrile 3 min, to 50% in 2 min, to 85% in 15 min, held 3 min, 100 µL/min
Details: column: Zorbax Extend-C18 2.1 x 50 mm; eluents: water / acetonitrile, 0.1% formic acid
Outline: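 Standards, all pure, were combined into mixtures of ~100 molecules and run at 100 μL/min on a Zorbax Extend-C18 column (2.1 × 50 mm, 1.8 μm) with water and acetonitrile, each containing 0.1% formic acid. A coupled quadrupole time-of-flight mass spectrometer operated in positive and negative ionization mode. Retention time values come from computationally picked adduct peaks, each inspected manually.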

| SMILES | RP-LC retention time [s] |
| --- | --- |
| CC(C)(C)c1ccc(-c2nc(C3CC(=O)N(c4ccc(F)c(Cl)c4)C3)no2)cc1 (stereo not given) | 1360 |
| CC(C)N1C(=O)c2cccnc2Sc2cc(NC(=O)COc3ccc(F)cc3)ccc21 | 894 |
| Cc1cc(C)n(Cc2c(C(=O)NCC34CCC=C3N(C)C(=O)CC4)noc2C)n1 (stereo not given) | 749 |
| Cc1cccc(OCC(O)Cn2c(C3CC3)nc3ccccc32)c1 (stereo not given) | 685 |
| CCOc1cc(=O)n2c(c1C(=O)NCC1CCCCC1)CCCCC2 | 772 |
| CN(C)CCCc1cc(C(=O)Nc2ccc(-c3ccncc3)cc2)ccc1O | 580 |
| CC(C)n1c(=O)oc2cc(-c3noc(-c4cc(F)cc(F)c4)n3)ccc21 | 1220 |
| O=C(NCCc1noc(C2CC2)n1)C1CCCC1 | 699 |
| CC(C)Oc1ccc(CNC(=O)C2CCN(c3nnc4ccccn34)CC2)cc1 | 685 |
| CCNC(=O)c1csc(N2CCCC(C)C2)n1 (stereo not given) | 928 |
| O=C1CCCc2cc(S(=O)(=O)N3CCC(C(=O)NC4CCCCCC4)CC3)ccc2N1 | 769 |
| CC1CCCN(CCCNC(=O)CCCN2C(=O)CCn3nc(-c4cccn4C)cc32)C1 (stereo not given) | 614 |
| CCOc1ccc(-n2c(=O)c3sccc3n(Cc3nc(-c4ccccc4C)no3)c2=O)cc1 | 1070 |
| O=C([C@@H]1C[C@H](F)CN1S(=O)(=O)Cc1ccc(Cl)cc1)N1CCc2ccccc2C1 | 1020 |
| CCOCCCNC(=O)Cn1cccc1-c1nc(-c2ccc(Cl)cc2)cs1 | 1060 |
| Cc1cc(S(=O)(=O)N2CCCC2c2nc(-c3cccc(Cl)c3)no2)ccc1F (stereo not given) | 1240 |
| O=C(NCC1CC(=O)N(Cc2ccccc2)C1)c1cccc(Cl)c1 (stereo not given) | 727 |
| CCn1c(SCC(=O)N(C)C)nnc1-c1ccc2c(c1)OCCCO2 | 671 |
| CCCn1c(=O)oc2cc(NC(=O)NCC(=O)OCC)ccc21 | 703 |
| Cc1ccc(C)c(N2CCN(c3ncc(S(=O)(=O)c4ccccc4)c(N)n3)CC2)c1 | 1230 |
| COc1cccc(NC(=O)NCc2cc(C)oc2C)c1OC | 815 |

| SMILES | RP-LC retention time [s] |
| --- | --- |
| CCCNC(=O)NC1CCN(c2nc3ccccc3n(C)c2=O)CC1 | 715 |
| COc1ccc(NC(=O)C(C)C2CCN(C(=O)Nc3ccc(F)cc3)CC2)cc1 (stereo not given) | 799 |
| O=S(=O)(c1cccc(C(F)(F)F)c1)N1CCc2nc(-c3ccc(F)cc3)ncc2C1 | 1170 |
| CC(C)(C)NC[C@@H](O)COc1cccc2c1CCCC2=O | 689 |
| Cc1ccc(C)c(NC(=O)Cn2nc3cc(C)nc(-c4ccccc4)n3c2=O)c1 | 868 |
| O=S1(=O)N=CN(c2ccc(F)cc2)c2ncccc21 | 738 |
| COC(=O)C1=CN(c2cc(C)ccc2OC)c2ccccc2S1(=O)=O | 894 |
| Cc1ccc(-c2noc(-c3cccnc3N3CCN(Cc4ccccc4)CC3)n2)cc1 | 823 |
| CCN(CC)C(=O)C1CCCN(c2ncnc3c2nc2n3CCCCC2)C1 (stereo not given) | 708 |
| Cc1ccc(NC(=O)C(=O)c2ccc[nH]2)cc1 | 894 |
| O=C(c1ccc(OCC2CCN(C(=O)c3ccco3)CC2)cc1)N1CCOCC1 | 718 |
| O=C(Cn1nc2nc(Nc3ccc(F)cc3)ccn2c1=O)N1CCCC1 | 621 |
| Cc1cccc(OCc2nnc(SCC(=O)Nc3nc(-c4ccccc4)c(C)s3)o2)c1 | 932 |
| COc1ccc(C2c3[nH]c4ccccc4c3CCN2C(=O)c2cccnc2)cc1 (stereo not given) | 887 |
| COc1cccc(-n2ccnc(NC(=O)Nc3cccc(F)c3)c2=O)c1 | 934 |
| Cc1ccc(CNC(=O)c2ccc3c(c2)CC(=O)N3C)cc1 | 730 |
| O=C(NCc1cccnc1)c1ccc2ccnc(N3CCN(C(=O)c4ccco4)CC3)c2c1 | 563 |
| Cn1ccc2c(cc(C(=O)N3CCN(c4ccccn4)CC3)n2C)c1=O | 560 |
| CCCN(CC1CCOC1)S(=O)(=O)c1ccc(C)c(F)c1 (stereo not given) | 878 |
| CC(=O)N1CCOc2ccc(S(=O)(=O)N3CCCC3C(=O)Nc3nccs3)cc21 (stereo not given) | 735 |
| CN(CC1(C)CCOCC1)C(=O)NCc1ccco1 | 649 |

| SMILES | RP-LC retention time [s] |
| --- | --- |
| Cc1ccc(CNC(=O)N2CCC3(CC2)NC(=O)c2ccc(Cl)cc2N3C)cc1 | 843 |
| O=S(=O)(Nc1ccc(Cn2cncn2)cc1)c1ccc(F)c(F)c1 | 721 |
| CCCn1cc(CCNC(=O)Nc2cc(C)ccc2C)c2cccnc21 | 808 |
| CCOc1ccccc1-c1noc(Cn2c(=O)n(-c3ccccc3F)c(=O)c3sccc32)n1 | 982 |
| O=C(C1CCC1)N1CCCC(Cc2nncn2CC2CC2)C1 (stereo not given) | 596 |
| O=C(Cc1csc2nc(-c3cccc(Br)c3)cn12)N1CCc2ccccc21 | 1040 |
| O=C(Nc1cccc(OCc2nnc(-c3ccccc3)o2)c1)c1cccnc1 | 750 |
| COc1ccc(-n2nc(C)c3sc(N4CCCC(C(=O)NCC5CCCO5)C4)nc32)cc1 (stereo not given) | 895 |
| O=C(NCCc1ccccc1)C1=C2CCCN2c2ccc(F)cc2S1(=O)=O | 909 |
| Cc1ccc(-c2nc3cnccn3c2Nc2ccc(C)c(Cl)c2)cc1 | 1080 |
| CCc1noc(NC(C)=O)c1-c1ccc(C)c(S(=O)(=O)NCc2cccs2)c1 | 783 |
| Cc1noc(CNC(=O)C2CCN(C(=O)c3cc(-c4ccccc4)n[nH]3)CC2)n1 | 610 |
| COCc1cc2nn(CC(=O)Nc3ccc(OC)c(F)c3)c(=O)n2c(-c2ccccc2)n1 | 797 |
| O=C(NCCc1c[nH]c2ccccc12)c1cc2occc2c(Nc2ccc(F)cc2)n1 | 1020 |
| Nc1cc(C2CCN(C(=O)Nc3ccc(Br)cc3F)CC2)no1 | 736 |
| Cc1cccc(NC(=O)N2CCC3(CC2)N=C(c2ccccc2)C(=O)N3)c1 | 806 |
| CC(C(=O)OC1CC2CCC(C1)N2C)c1ccc(Br)cc1 (stereo not given) | 785 |
| O=C(Nc1ccc2c(c1)OCCO2)N1CCC(Oc2ccccc2)C1 (stereo not given) | 639 |
| COc1cc(NC(=O)c2cn3c(n2)CN(CC(C)C)CC3)cc(OC)c1 | 818 |
| CCN(CC)S(=O)(=O)c1ccc2c(c1)N(CC(=O)N1CCOCC1)C(=O)C1CCCCN21 (stereo not given) | 777 |

More lines, now with the values ahead:

| RP-LC retention time [s] | SMILES |
| --- | --- |
| 737 | CCCc1noc(-c2cccnc2N2CCCN(Cc3ccccc3Cl)CC2)n1 |
| 1110 | O=C(Nc1nc(-c2cc([N+](=O)[O-])cs2)cs1)c1coc2ccccc2c1=O |
| 749 | Cc1nc2cc(N3CC(C(=O)N4CCN(c5ccc(F)cc5)CC4)CC3=O)ccc2o1 (stereo not given) |
| 587 | Cc1cnc(C2CC2)n1C1CCCN(C(=O)NC(C)C)C1 (stereo not given) |
| 637 | COCCN1C(=O)Cc2ccccc2C1C(=O)NCc1ccc(C)o1 (stereo not given) |
| 588 | COc1ccc(-c2nnc(CC(=O)NCc3ccccn3)o2)cc1 |
| 682 | Cc1[nH]c2ccccc2c1C(=O)C(c1ccccc1)N1CCN(c2ncccn2)CC1 (stereo not given) |
| 582 | O=C(CCn1cccn1)N1CCCn2ccnc2C1C1CCCC1 (stereo not given) |
| 632 | Cc1sc2ccn(Cc3ccc(F)cc3)c(=O)c2c1C(=O)NCc1cccnc1 |
| 1050 | Cc1cc(NC(=O)N2CCCC(C)(C(=O)NCc3ccc(F)cc3)C2)ccc1Br (stereo not given) |
| 930 | CCCN1C(=O)COc2ccc(-c3noc(CNC(=O)c4ccc(C)cc4)n3)cc21 |
| 855 | NS(=O)(=O)c1cccnc1Nc1cccc(Cl)c1 |
| 709 | COc1ccc(NC(=O)Cn2nc3cc(C)nc(N4CCCC4)n3c2=O)cc1 |
| 658 | O=C(COc1ccccc1)N1CCC(CNS(=O)(=O)c2cccnc2)CC1 |
| 748 | O=C1NC2(CCN(C(=O)c3ccccc3)CC2)N=C1c1cccc(F)c1 |
| 942 | O=C(NCc1ccc(F)cc1)c1nc(Cn2c(=O)oc3ccc(Cl)cc32)no1 |
| 617 | CN(C)CCCN(C(=O)c1ccc(Br)s1)c1nc2c(F)cccc2s1 |
| 968 | Cc1sc(NC(=O)c2cccc(Cl)c2)nc1-c1ccc2c(c1)NC(=O)CO2 |
| 555 | O=C(CN1CCCCCC1)N1CCC2(CCC2O)CC1 (stereo not given) |
| 966 | CCOc1ccccc1-c1noc(Cn2c(=O)n(CC3CCCO3)c(=O)c3ccccc32)n1 (stereo not given) |
| 973 | Cc1csc(-c2cc(S(=O)(=O)NCCc3cccs3)c(C)n2C)n1 |
| 901 | CCOc1ccc(NC(=O)c2cnc3c(c2)c(=O)n(C)c(=O)n3-c2ccc(OC)cc2)cc1 |
| 587 | COc1cccc(S(=O)(=O)N2CCC(n3c(C)cnc3C3CC3)C2)c1 (stereo not given) |
| 564 | NC(=O)[C@@H]1C[C@H](Oc2cccnc2)CN1C(=O)Cn1c(=O)oc2ccccc21 |
| 882 | CCN(CC)CCOC(=O)C(c1ccccc1)C1CCCCC1 (stereo not given) |
| 1130 | Cc1nc(-c2cn(C)c3ncccc23)sc1C(=O)Nc1ccc(F)cc1 |
| 597 | O=C(CCc1nnc2ccc(N3CCCCC3)nn12)N1CCN(c2ccccn2)CC1 |
| 899 | CCc1ccc(-n2nc(N3CCCC(C(=O)NCc4cccc(F)c4)C3)ccc2=O)cc1 (stereo not given) |
